# Reference: patent US11414379B2, “SPAK kinase inhibitors as neuroprotective agents” (United States Government as represented by the Department …, priority 2018, dated 2022)
# Key:
# pNKCC1 = experiment: IVH-induced phosphorylation in rat choroid plexus, ICV delivery; assay type: in vivo; conditions: 48 hrs post-IVH, n=3
# pKCC3 = experiment: Phosphorylation in ischemic mouse brains, immunoblot; assay type: in vivo
# Experimental: (§1) The membranes were incubated for 30 min with TBST (Tris-buffered saline, 0.05% Tween-20) containing 5% (w/v) skim milk. The blots were then washed six times with TBST and incubated for 1 hour at room temperature with secondary HRP-conjugated antibodies diluted 5000-fold in 5% (w/v) skim milk in TBST. After repeating the washing steps, signals were detected with enhanced chemiluminescence reagent. Immunoblots were developed using a film automatic processor (SRX-101; Konica Minolta Medical) and films were scanned at 600 dpi (PowerLook 1000; UMAX). Figures were generated using Photoshop/Illustrator (Adobe). The densities of bands were measured with ImageJ. For phospho-antibody immunoprecipitation, KCC isoforms were immunoprecipitated from indicated cell extracts. 2 mg of the indicated clarified cell extract were mixed with 15 μg of the indicated phospho-specific KCC antibody conjugated to 15 μl of protein-G-Sepharose, in the added presence of […] of the dephosphorylated form of the phosphopeptide antigen, and incubated 2 hours at 4° C. with gentle shaking. Immunoprecipitates were washed three times with 1 mL of lysis buffer containing 0.15 M NaCl and twice with 1 ml of buffer A. Bound proteins were eluted with 1×LDS sample buffer.
# (§2) Brain homogenates were prepared as previously described (Bhuiyan et al. (2017) Journal of cerebral blood flow and metabolism: official journal of the International Society of Cerebral Blood Flow and Metabolism 37: 2780-2794). Mice were anesthetized with 5% isoflurane vaporized in N20 and 02 (3:2), then decapitated. […] The pellet was re-suspended in the homogenization buffer. Protein content in both membrane and cytosolic fractions was determined by the standard bicinchoninic acid method.
# (§3) Referring to FIG. 14A, representative immunoblots (IB) of phospho-SPAK/OSR1 (pSPAK/pOSR1), phospho-KCC3 and phospho-NKCC1 (pNKCC1) in mouse brains studied 24 hrs post-reperfusion after ischemic stroke are shown. Membrane protein fractions were prepared from contralateral (CL) and ipsilateral (IL) cerebral hemispheres. Vehicle (Veh, DMSO) or ZT-1a (5 mg/kg) was administered as described in FIG. 11A, FIG. 11B, and FIG. 13. Na^+-K^+ ATPase α-subunit and GAPDH served, respectively, as loading controls for membrane and cytosol fractions.
# (§4) Referring to FIG. 14B, densitometry analyses of immunoblots (similar to those in panel A) of pSPAK/pOSR1, pNKCC1, tSPAK/tOSR1, and tNKCC1 in mouse brains studied 24 hrs reperfusion after tMCAO are shown. Data are means±SEM, n=5 per group (male 3, female 2). *p<0.05.
# pSPAK/pOSR1 and pNKCC1 = experiment: as above; assay type: in vivo
# Experimental: as §1, §2, §3, §4
# BRSK1 = BRSK1 (Homo sapiens, UniProt Q8TDC3); experiment: Kinase panel (Dundee profiling); assay type: biochemical; conditions: read-out: % residual kinase activity
# Experimental: (§5) The kinase selectivity of ZT-1a was further assessed using standard radioisotopic enzymatic assays against a panel of 140 recombinant kinases (Dundee profiling, Table 2) (Bain et al. (2007) The Biochemical journal 408, 297-315). ZT-1a at a concentration of 10 μM inhibited only MAPKAP-K2 activity 85±7% compared to DMSO control, representing high kinase selectivity.
# (§6) Referring to Table 2, ZT-1a was tested at 10 and 1 μM against a panel of 140 recombinant kinases in an enzymatic activity-based assay performed by the International Centre for Kinase Profiling in the MRC Protein Phosphorylation and Ubiquitylation Unit. Values represent % residual kinase activity (mean+/−SEM, n=3). Kinases labelled with an asterick* are inhibited ≥50% by ZT-1a.
# BTK = BTK (Homo sapiens, UniProt Q06187); experiment: Kinase panel (Dundee profiling); assay type: biochemical; conditions: read-out: % residual kinase activity
# Experimental: as §5, §6
# CAMK1 = CAMK1 (Homo sapiens, UniProt Q14012); experiment: Kinase panel (Dundee profiling); assay type: biochemical; conditions: read-out: % residual kinase activity
# CAMK1, sequence (Q14012 whole entry, species assumed): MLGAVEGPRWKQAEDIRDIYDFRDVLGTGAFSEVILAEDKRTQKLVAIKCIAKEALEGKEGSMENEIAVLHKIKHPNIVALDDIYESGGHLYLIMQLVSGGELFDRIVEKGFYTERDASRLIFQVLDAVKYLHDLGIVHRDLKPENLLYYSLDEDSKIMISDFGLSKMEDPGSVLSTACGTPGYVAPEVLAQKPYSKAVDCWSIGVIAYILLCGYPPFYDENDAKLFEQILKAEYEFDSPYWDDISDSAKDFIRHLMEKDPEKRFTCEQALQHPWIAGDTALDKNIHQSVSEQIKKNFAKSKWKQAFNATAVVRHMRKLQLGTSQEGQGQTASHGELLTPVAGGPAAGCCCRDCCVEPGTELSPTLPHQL
# Experimental: as §5, §6
# CAMKKb = CAMKKb (Homo sapiens, UniProt Q96RR4); experiment: Kinase panel (Dundee profiling); assay type: biochemical; conditions: read-out: % residual kinase activity
# CAMKKb, sequence (Q96RR4 whole entry, species assumed): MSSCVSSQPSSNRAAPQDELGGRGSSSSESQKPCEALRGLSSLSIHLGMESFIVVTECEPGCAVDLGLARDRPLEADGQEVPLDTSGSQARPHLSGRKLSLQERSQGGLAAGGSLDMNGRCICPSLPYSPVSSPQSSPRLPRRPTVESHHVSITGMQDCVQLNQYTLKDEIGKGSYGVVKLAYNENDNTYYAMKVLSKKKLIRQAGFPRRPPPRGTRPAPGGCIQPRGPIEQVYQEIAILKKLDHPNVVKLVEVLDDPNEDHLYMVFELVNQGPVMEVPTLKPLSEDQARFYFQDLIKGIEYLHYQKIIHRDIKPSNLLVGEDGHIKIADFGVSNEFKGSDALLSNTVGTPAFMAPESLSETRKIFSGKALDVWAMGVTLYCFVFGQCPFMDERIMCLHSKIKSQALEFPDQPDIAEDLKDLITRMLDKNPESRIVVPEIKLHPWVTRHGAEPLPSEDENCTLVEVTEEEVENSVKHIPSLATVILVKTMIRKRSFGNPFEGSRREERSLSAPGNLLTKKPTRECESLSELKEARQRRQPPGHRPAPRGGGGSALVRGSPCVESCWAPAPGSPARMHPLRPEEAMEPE
# Experimental: as §5, §6
# CHK2 = CHK2 (Homo sapiens, UniProt O96017); experiment: Kinase panel (Dundee profiling); assay type: biochemical; conditions: read-out: % residual kinase activity
# CHK2, sequence (O96017 whole entry, species assumed): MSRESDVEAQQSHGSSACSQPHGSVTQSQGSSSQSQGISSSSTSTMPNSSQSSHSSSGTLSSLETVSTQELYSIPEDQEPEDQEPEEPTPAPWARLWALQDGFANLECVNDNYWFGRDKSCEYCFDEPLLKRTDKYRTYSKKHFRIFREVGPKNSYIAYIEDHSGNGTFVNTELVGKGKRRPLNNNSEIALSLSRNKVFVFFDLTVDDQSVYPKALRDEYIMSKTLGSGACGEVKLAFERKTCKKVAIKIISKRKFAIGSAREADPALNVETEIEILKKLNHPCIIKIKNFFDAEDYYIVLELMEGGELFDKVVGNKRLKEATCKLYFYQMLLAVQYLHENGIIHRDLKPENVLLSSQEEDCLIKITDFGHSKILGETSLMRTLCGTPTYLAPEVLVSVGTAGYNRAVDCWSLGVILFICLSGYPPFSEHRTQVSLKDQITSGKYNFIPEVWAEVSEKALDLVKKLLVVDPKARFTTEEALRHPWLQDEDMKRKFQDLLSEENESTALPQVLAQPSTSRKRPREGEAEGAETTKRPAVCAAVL
# Experimental: as §5, §6
# ERK5 = ERK5 (Homo sapiens, UniProt Q13164); experiment: Kinase panel (Dundee profiling); assay type: biochemical; conditions: read-out: % residual kinase activity
# Experimental: as §5, §6
# FGF-R1 = FGF-R1 (Homo sapiens, UniProt P11362); experiment: Kinase panel (Dundee profiling); assay type: biochemical; conditions: read-out: % residual kinase activity
# FGF-R1, sequence (P11362 22-822, species assumed): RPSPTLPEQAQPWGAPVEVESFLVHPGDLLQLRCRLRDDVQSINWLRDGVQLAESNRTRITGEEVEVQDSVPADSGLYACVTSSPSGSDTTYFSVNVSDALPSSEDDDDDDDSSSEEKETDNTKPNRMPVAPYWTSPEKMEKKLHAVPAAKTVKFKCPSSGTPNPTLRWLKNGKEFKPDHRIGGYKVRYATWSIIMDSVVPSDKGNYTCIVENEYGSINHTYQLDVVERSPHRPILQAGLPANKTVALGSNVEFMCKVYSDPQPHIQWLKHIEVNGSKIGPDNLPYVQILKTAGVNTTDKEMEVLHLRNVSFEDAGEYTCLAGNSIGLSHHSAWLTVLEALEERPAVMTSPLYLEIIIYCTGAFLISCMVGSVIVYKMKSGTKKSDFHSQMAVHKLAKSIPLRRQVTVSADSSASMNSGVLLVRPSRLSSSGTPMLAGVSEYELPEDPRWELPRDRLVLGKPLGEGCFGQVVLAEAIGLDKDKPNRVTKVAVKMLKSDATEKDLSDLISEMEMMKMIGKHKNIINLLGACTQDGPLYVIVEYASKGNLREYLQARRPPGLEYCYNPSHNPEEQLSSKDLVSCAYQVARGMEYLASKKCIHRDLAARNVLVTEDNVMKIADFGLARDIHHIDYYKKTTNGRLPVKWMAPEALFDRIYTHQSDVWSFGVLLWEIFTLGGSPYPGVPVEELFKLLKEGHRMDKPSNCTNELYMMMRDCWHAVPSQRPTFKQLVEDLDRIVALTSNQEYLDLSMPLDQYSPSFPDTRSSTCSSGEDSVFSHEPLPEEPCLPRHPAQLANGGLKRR
# Experimental: as §5, §6
# IR = IR (Homo sapiens, UniProt P06213); experiment: Kinase panel (Dundee profiling); assay type: biochemical; conditions: read-out: % residual kinase activity
# Experimental: as §5, §6
# IRAK4 = IRAK4 (Homo sapiens, UniProt Q9NWZ3); experiment: Kinase panel (Dundee profiling); assay type: biochemical; conditions: read-out: % residual kinase activity
# Experimental: as §5, §6
# JNK1 = JNK1 (Homo sapiens, UniProt P45983); experiment: Kinase panel (Dundee profiling); assay type: biochemical; conditions: read-out: % residual kinase activity
# Experimental: as §5, §6
# MKK6 = MKK6 (Homo sapiens, UniProt P52564); experiment: Kinase panel (Dundee profiling); assay type: biochemical; conditions: read-out: % residual kinase activity
# Experimental: as §5, §6
# MLK1 = MLK1 (Homo sapiens, UniProt P80192); experiment: Kinase panel (Dundee profiling); assay type: biochemical; conditions: read-out: % residual kinase activity
# Experimental: as §5, §6
# NUAK1 = NUAK1 (Homo sapiens, UniProt O60285); experiment: Kinase panel (Dundee profiling); assay type: biochemical; conditions: read-out: % residual kinase activity
# NUAK1, sequence (O60285 whole entry, species assumed): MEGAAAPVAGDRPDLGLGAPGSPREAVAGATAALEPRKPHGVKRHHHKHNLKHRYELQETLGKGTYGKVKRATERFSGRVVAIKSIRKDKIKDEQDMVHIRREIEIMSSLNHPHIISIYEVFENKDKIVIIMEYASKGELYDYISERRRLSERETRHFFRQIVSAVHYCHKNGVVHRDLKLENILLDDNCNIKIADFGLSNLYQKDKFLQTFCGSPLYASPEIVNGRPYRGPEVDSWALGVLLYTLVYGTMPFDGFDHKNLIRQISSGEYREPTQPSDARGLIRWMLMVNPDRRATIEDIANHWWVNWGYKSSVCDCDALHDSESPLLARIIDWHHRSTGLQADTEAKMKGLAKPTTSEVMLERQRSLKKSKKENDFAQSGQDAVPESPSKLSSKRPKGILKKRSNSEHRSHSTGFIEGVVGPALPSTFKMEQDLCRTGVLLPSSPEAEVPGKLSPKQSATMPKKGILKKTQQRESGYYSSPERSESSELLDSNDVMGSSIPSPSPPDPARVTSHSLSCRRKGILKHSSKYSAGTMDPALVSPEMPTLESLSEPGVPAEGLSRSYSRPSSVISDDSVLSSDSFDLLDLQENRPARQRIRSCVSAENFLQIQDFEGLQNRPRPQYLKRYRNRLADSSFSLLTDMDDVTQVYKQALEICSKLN
# Experimental: as §5, §6
# PAK5 = PAK5 (Homo sapiens, UniProt Q9P286); experiment: Kinase panel (Dundee profiling); assay type: biochemical; conditions: read-out: % residual kinase activity
# PAK5, sequence (Q9P286 whole entry): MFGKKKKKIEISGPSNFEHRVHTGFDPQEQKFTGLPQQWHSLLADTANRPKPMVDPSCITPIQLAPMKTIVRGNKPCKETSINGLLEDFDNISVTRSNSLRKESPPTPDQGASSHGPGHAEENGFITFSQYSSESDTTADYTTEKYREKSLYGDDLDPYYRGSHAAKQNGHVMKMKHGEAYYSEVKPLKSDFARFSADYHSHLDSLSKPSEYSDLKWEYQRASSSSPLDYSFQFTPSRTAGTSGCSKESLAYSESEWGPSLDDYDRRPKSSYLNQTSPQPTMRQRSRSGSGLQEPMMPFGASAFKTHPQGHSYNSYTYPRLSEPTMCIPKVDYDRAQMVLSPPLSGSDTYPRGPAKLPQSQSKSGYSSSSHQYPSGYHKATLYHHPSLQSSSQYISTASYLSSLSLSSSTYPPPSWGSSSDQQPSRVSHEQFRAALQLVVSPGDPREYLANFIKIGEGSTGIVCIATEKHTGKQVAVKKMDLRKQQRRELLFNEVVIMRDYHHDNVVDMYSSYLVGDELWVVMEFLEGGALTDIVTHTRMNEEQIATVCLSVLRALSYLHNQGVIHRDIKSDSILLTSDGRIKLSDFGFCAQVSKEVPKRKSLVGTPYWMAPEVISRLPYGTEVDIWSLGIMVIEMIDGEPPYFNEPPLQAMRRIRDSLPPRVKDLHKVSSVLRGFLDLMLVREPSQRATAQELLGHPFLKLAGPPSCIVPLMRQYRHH
# Experimental: as §5, §6
# RSK1 = RSK1 (Homo sapiens, UniProt Q15418); experiment: Kinase panel (Dundee profiling); assay type: biochemical; conditions: read-out: % residual kinase activity
# RSK1, sequence (Q15418 whole entry, species assumed): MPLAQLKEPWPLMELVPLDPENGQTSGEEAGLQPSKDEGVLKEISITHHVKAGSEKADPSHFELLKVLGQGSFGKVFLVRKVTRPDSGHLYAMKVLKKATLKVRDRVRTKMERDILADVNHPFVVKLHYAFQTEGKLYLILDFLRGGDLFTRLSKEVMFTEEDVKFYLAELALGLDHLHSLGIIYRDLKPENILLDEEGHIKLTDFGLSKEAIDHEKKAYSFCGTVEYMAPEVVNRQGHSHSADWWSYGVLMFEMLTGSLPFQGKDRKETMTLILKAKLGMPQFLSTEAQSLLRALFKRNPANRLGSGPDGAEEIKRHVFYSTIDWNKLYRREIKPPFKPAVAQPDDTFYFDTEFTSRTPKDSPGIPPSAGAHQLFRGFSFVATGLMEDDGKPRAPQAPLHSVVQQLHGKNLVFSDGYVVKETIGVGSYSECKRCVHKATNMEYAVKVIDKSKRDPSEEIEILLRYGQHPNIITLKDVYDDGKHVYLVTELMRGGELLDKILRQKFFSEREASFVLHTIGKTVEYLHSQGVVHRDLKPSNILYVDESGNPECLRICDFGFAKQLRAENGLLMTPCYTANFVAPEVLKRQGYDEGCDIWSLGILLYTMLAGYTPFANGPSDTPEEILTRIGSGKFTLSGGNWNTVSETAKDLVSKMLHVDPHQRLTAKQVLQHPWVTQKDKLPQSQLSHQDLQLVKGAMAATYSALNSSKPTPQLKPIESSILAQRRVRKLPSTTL
# Experimental: as §5, §6
# STK33 = STK33 (Homo sapiens, UniProt Q9BYT3); experiment: Kinase panel (Dundee profiling); assay type: biochemical; conditions: read-out: % residual kinase activity
# Experimental: as §5, §6
# p38b MAPK = p38b MAPK (Homo sapiens, UniProt Q15759); experiment: Kinase panel (Dundee profiling); assay type: biochemical; conditions: read-out: % residual kinase activity
# p38b MAPK, sequence (Q15759 whole entry): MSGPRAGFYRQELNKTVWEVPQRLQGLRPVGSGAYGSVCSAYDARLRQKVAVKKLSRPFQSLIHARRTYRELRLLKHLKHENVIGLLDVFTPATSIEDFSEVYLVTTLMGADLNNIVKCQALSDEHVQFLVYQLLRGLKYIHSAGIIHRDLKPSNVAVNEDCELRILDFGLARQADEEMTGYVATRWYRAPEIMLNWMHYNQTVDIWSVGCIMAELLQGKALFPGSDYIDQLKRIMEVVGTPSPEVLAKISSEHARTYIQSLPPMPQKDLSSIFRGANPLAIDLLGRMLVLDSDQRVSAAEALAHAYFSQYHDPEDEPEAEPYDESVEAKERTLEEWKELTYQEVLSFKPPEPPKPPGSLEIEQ
# Experimental: as §5, §6
# [1] = compared to vehicle-control mice
# [2] = ipsilateral cortex membrane fractions, 24 hrs reperfusion, 5 mg/kg
structure (smiles),measurement,setting,value
"Cc1cc(C(C#N)c2ccc(Cl)cc2)c(Cl)cc1NC(=O)c1cc(Cl)ccc1O (stereo not drawn) [ZT-1a, 5-chloro-N-(5-chloro-4-((4-chlorophenyl)(cyano)methyl)-2-methylphenyl)-2-hydroxy-benzamide]",reduction of IVH-induced expression of pNKCC1,pNKCC1,69±4.3%
same,reduction of ischemia-induced elevations of pKCC3,pKCC3; [1],30%
same,effect on ischemia-induced increases of pKCC3,pKCC3; [2],prevented ischemia-induced increases
same,reduction of ischemia-induced elevations of pSPAK and pNKCC1,pSPAK/pOSR1 and pNKCC1; [1],55-65%
same,effect on ischemia-induced increases of pSPAK/pOSR1 and pNKCC1,pSPAK/pOSR1 and pNKCC1; [2],prevented ischemia-induced increases
same,remaining activity at 1 µM,BRSK1; 1 μM,108 ± 14%
same,remaining activity at 10 µM,BRSK1; 10 μM,88 ± 22%
same,remaining activity at 1 µM,BTK; 1 μM,113 ± 1%
same,remaining activity at 10 µM,BTK; 10 μM,73 ± 2%
same,remaining activity at 1 µM,CAMK1; 1 μM,60 ± 5%
same,remaining activity at 10 µM,CAMK1; 10 μM,71 ± 31%
same,remaining activity at 1 µM,CAMKKb; 1 μM,115 ± 10%
same,remaining activity at 10 µM,CAMKKb; 10 μM,102 ± 9%
same,remaining activity at 1 µM,CHK2; 1 μM,106 ± 1%
same,remaining activity at 10 µM,CHK2; 10 μM,68 ± 6%
same,remaining activity at 1 µM,ERK5; 1 μM,120 ± 9%
same,remaining activity at 10 µM,ERK5; 10 μM,114 ± 5%
same,remaining activity at 1 µM,FGF-R1; 1 μM,93 ± 6%
same,remaining activity at 10 µM,FGF-R1; 10 μM,101 ± 15%
same,remaining activity at 1 µM,IR; 1 μM,105 ± 2%
same,remaining activity at 10 µM,IR; 10 μM,86 ± 13%
same,remaining activity at 1 µM,IRAK4; 1 μM,127%
same,remaining activity at 10 µM,IRAK4; 10 μM,127 ± 11%
same,remaining activity at 1 µM,JNK1; 1 μM,106 ± 4%
same,remaining activity at 10 µM,JNK1; 10 μM,110 ± 5%
same,remaining activity at 1 µM,MKK6; 1 μM,102 ± 12%
same,remaining activity at 10 µM,MKK6; 10 μM,82 ± 16%
same,remaining activity at 1 µM,MLK1; 1 μM,94 ± 4%
same,remaining activity at 10 µM,MLK1; 10 μM,81 ± 21%
same,remaining activity at 1 µM,NUAK1; 1 μM,52 ± 7%
same,remaining activity at 10 µM,NUAK1; 10 μM,61 ± 16%
same,remaining activity at 1 µM,PAK5; 1 μM,93 ± 26%
same,remaining activity at 10 µM,PAK5; 10 μM,93 ± 4%
same,remaining activity at 1 µM,RSK1; 1 μM,95 ± 2%
same,remaining activity at 10 µM,RSK1; 10 μM,87 ± 4%
same,remaining activity at 1 µM,STK33; 1 μM,114 ± 7%
same,remaining activity at 10 µM,STK33; 10 μM,100 ± 5%
same,remaining activity at 1 µM,p38b MAPK; 1 μM,124 ± 1%
same,remaining activity at 10 µM,p38b MAPK; 10 μM,124%
